ChEMBL document CHEMBL1212924 (J Med Chem, 2010)
One block for each molecule: values may come before it. Active and inactive are the calls of the source. The calls are words filed in the database; no cut-off is given here.

Key:
[1] = Half life in rat at 1 mg/kg, iv and 2 mg/kg, po; assay type: ADME, organism-based; details: in vivo
[2] = Clearance in rat at 1 mg/kg, iv and 2 mg/kg, po; assay type: ADME, organism-based; details: in vivo
in vitro = details: human, liver microsomes
Description: Half life in human liver microsome at 2 mg/mL

[3] = Volume of distribution in rat at 1 mg/kg, iv and 2 mg/kg, po; assay type: ADME, organism-based; details: in vivo
[4] = Oral bioavailability in rat at 2 mg/kg; assay type: ADME, organism-based; details: in vivo
[5] = target: Rho-associated protein kinase 2 (Homo sapiens, UniProt O75116)
Rho-associated protein kinase 2, sequence (O75116 whole entry): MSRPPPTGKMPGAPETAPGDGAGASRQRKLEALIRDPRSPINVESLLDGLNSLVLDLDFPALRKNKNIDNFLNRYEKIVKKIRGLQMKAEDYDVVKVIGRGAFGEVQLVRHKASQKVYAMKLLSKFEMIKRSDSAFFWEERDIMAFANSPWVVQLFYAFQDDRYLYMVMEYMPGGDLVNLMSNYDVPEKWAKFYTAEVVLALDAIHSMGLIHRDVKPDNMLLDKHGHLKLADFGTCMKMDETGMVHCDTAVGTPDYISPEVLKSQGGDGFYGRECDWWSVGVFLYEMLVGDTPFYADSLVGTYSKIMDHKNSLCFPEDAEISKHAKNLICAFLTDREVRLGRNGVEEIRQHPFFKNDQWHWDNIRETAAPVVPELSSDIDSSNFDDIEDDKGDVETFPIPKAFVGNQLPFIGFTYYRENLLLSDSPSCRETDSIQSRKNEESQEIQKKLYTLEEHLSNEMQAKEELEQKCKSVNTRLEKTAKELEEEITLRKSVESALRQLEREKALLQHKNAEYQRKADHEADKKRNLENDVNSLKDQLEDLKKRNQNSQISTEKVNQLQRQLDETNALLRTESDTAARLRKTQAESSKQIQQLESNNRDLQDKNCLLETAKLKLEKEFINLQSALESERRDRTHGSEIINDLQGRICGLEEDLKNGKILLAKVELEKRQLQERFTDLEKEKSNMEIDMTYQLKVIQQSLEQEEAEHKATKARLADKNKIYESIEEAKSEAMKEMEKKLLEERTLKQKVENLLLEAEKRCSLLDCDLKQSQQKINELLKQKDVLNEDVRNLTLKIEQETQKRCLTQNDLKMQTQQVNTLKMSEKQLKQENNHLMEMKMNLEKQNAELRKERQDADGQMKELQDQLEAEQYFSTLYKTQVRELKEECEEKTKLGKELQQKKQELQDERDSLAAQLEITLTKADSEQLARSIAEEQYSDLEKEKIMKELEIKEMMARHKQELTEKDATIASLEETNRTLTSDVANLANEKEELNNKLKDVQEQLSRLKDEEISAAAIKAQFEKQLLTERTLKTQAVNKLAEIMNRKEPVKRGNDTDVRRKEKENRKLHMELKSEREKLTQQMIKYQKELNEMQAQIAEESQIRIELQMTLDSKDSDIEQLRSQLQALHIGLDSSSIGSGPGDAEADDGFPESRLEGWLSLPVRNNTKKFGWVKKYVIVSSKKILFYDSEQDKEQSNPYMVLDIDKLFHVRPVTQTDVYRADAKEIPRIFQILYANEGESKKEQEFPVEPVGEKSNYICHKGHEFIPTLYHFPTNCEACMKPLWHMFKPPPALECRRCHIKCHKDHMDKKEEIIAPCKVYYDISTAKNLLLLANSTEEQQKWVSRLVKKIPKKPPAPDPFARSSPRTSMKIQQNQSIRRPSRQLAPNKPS

[6] = Inhibition of p38
CYP3A4 = CYP3A4 (Homo sapiens, UniProt P08684); assay: Inhibition of CYP3A4 at 10 uM; assay type: ADME
CYP2D6 = CYP2D6 (Homo sapiens, UniProt P10635); assay: Inhibition of CYP2D6 at 10 uM; assay type: ADME
[7] = Cmax in rat at 2 mg/kg, po; assay type: ADME, organism-based; design: dose 2 mg/kg, route oral; details: in vivo
[8] = target: Mitogen-activated protein kinase 10 (Homo sapiens, UniProt P53779)
Mitogen-activated protein kinase 10, sequence (P53779 whole entry): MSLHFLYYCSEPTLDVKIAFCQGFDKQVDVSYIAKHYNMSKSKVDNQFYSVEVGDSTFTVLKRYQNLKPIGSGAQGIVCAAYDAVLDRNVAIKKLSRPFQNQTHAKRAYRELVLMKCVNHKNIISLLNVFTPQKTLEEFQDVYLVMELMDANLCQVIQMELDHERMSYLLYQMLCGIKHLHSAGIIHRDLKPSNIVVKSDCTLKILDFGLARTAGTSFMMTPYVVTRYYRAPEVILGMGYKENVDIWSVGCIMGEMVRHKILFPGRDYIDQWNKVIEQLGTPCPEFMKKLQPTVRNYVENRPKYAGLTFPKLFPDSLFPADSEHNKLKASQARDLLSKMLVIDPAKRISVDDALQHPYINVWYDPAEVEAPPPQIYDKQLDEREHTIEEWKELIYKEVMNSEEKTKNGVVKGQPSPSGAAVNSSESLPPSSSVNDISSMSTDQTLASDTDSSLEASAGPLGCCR

CYP1A2 = target: T1, CYP1A2 (Homo sapiens, UniProt P05177); assay: Inhibition of CYP1A2 at 10 uM; assay type: ADME
T1 sequence (P05177 whole entry): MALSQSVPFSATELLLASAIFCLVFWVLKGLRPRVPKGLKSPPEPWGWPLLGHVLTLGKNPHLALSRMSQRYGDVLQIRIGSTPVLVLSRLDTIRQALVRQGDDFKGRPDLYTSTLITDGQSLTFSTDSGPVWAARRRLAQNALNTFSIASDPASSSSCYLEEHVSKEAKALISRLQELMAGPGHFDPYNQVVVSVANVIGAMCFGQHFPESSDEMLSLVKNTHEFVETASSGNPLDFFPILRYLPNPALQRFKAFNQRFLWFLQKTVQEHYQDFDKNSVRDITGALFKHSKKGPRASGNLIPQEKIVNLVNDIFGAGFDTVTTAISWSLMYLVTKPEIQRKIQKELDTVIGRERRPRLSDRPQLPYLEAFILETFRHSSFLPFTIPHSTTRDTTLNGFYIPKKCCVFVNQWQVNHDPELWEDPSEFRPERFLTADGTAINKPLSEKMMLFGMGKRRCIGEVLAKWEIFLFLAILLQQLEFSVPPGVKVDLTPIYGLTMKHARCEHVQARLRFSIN

[9] = target: Serine/threonine-protein kinase MRCK alpha (Homo sapiens, UniProt Q5VT25); assay: Inhibition of MRCKalpha
Serine/threonine-protein kinase MRCK alpha, sequence (Q5VT25 whole entry): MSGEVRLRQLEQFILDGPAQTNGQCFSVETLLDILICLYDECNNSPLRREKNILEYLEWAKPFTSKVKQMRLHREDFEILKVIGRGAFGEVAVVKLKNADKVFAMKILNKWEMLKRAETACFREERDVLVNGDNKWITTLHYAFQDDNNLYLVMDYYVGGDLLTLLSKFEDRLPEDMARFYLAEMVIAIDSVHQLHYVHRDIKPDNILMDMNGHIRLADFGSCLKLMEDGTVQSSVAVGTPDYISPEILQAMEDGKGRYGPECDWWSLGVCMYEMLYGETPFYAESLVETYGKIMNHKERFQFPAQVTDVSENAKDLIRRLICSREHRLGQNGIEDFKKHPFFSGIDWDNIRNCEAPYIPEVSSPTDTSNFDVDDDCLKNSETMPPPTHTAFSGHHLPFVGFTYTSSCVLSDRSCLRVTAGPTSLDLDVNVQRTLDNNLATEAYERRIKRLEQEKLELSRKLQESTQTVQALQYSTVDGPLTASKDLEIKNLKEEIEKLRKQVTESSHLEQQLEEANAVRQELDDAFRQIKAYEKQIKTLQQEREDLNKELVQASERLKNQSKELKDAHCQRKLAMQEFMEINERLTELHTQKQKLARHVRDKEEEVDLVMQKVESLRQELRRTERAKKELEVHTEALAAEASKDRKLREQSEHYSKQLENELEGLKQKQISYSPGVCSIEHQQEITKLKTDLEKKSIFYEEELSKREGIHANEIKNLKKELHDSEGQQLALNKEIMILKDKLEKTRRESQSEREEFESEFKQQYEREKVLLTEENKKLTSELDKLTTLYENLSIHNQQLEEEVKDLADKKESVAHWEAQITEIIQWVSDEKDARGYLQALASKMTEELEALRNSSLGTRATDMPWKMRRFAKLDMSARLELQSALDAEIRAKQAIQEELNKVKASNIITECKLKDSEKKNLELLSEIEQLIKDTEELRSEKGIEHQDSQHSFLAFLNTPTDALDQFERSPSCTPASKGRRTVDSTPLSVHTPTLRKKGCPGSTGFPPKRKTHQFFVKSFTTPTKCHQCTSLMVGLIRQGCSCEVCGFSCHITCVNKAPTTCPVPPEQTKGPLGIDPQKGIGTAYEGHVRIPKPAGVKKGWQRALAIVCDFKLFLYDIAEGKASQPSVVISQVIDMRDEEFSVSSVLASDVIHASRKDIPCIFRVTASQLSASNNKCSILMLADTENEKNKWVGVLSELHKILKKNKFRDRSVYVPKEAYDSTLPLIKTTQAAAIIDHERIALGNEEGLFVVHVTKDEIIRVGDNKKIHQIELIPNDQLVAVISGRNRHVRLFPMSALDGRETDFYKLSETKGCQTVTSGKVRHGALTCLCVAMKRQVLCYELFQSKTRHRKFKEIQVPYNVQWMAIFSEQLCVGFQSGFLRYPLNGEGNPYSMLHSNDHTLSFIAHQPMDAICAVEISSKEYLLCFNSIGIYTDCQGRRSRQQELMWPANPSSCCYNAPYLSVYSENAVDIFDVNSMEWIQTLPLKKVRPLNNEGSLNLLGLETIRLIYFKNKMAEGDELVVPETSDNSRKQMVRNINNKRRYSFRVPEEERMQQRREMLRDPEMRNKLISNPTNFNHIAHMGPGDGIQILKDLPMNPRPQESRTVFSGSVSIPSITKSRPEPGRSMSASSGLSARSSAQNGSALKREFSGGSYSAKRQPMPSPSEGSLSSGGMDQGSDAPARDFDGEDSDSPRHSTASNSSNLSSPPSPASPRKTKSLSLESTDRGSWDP

[10] = target: Rho-associated protein kinase 1 (Homo sapiens, UniProt Q13464)
Rho-associated protein kinase 1, sequence (Q13464 whole entry): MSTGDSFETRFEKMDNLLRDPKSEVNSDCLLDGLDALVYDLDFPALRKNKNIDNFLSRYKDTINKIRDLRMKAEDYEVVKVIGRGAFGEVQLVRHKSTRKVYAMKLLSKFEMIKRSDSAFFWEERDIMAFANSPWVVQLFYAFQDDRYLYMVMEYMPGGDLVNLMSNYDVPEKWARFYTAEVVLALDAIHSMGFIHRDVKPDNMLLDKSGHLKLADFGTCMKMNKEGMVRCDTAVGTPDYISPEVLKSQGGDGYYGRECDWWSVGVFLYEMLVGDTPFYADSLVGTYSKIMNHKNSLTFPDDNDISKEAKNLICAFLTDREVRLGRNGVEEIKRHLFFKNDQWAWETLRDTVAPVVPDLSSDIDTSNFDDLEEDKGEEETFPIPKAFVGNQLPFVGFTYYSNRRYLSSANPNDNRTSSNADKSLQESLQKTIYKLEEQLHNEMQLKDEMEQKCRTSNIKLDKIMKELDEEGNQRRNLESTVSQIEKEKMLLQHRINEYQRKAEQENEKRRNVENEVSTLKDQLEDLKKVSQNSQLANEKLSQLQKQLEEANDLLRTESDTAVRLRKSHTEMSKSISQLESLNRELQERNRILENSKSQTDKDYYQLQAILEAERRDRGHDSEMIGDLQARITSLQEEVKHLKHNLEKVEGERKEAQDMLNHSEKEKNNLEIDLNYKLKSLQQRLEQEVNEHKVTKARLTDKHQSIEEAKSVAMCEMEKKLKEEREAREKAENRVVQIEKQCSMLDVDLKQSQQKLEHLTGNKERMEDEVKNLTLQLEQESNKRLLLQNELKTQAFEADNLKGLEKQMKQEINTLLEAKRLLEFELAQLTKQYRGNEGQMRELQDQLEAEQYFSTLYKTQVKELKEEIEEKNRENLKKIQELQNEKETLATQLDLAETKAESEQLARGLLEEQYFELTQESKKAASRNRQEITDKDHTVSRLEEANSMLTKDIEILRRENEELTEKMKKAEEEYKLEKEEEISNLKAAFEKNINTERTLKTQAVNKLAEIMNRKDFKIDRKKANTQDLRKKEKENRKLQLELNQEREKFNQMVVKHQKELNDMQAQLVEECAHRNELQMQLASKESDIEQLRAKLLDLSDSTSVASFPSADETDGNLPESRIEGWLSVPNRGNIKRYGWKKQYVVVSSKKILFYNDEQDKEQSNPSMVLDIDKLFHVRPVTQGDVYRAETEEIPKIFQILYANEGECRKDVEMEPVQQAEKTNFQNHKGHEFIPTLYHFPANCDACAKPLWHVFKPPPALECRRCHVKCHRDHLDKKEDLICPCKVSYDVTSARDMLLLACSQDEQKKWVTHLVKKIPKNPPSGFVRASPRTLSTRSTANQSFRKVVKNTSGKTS

CYP2C9 = CYP2C9 (Homo sapiens, UniProt P11712); assay: Inhibition of CYP2C9 at 10 uM; assay type: ADME
Rattus norvegicus = assay: Reduction in intraocular pressure in Brown norway rat at 40 ug administered as drops in eye after 2 hrs; assay type: functional, organism-based
[11] = target: Dual specificity protein kinase CLK1 (Homo sapiens) (UniProt P49759); assay: Inhibition of CLK1 at 3 uM
[12] = target: Dual specificity protein kinase CLK4 (Homo sapiens) (UniProt Q9HAZ1); assay: Inhibition of CLK4 at 3 uM
[13] = target: Serine/threonine-protein kinase 38 (Homo sapiens) (UniProt Q15208); assay: Inhibition of NDR1 at 3 uM
[14] = target: Serine/threonine-protein kinase 33 (Homo sapiens) (UniProt Q9BYT3); assay: Inhibition of STK33 at 3 uM
[15] = target: T2, Serine/threonine-protein kinase LATS2 (Homo sapiens) (UniProt Q9NRM7); assay: Inhibition of Lats2 at 3 uM
T2 sequence (whole entry): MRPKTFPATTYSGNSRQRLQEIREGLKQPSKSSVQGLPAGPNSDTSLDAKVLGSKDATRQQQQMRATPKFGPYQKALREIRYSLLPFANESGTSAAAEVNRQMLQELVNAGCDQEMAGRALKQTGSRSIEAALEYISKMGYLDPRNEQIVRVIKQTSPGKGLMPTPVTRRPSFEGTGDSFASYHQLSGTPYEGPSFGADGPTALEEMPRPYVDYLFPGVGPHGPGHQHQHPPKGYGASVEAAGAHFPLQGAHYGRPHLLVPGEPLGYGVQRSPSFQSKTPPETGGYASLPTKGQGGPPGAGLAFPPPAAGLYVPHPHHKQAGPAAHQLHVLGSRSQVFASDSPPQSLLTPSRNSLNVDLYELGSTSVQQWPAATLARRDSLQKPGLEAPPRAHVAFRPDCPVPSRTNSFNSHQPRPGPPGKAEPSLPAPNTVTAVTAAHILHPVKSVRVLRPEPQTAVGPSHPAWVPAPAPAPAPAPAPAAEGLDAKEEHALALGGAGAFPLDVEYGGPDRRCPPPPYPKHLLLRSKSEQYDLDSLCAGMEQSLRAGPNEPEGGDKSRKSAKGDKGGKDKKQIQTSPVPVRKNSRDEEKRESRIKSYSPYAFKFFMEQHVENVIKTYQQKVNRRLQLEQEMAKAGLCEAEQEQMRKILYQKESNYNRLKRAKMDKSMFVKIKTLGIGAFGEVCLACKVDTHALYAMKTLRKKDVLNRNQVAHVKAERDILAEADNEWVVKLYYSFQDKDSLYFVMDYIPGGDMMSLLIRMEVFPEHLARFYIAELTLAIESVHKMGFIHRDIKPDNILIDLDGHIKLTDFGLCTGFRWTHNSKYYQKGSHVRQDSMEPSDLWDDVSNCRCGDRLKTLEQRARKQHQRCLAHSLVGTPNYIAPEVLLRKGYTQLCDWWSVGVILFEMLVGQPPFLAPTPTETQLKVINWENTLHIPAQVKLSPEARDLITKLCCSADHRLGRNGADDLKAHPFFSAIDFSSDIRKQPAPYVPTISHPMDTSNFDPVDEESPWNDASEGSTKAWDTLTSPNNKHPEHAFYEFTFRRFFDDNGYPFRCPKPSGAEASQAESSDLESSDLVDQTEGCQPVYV

[16] = target: Phosphatidylinositol 4,5-bisphosphate 3-kinase catalytic subunit beta isoform (Homo sapiens) (UniProt P42338); assay: Inhibition of PI3Kbeta at 3 uM
[17] = target: Serine/threonine-protein kinase MRCK beta (Homo sapiens) (UniProt Q9Y5S2); assay: Inhibition of MRCKbeta at 3 uM

half-life [1]: 2.3 h
clearance [2]: 42 mL/min/kg
half-life (in vitro): 0.05 h
Vd [3]: 7 L/kg
bioavailability [4]: 0%
SMILES: CN(C)CCOc1cc(-c2cn[nH]c2)c(F)cc1NC(=O)[C@H]1Cc2ccccc2CN1CC1CC1

IC50 [6]: > 20000 nM
inhibition at 10 µM (CYP3A4): -3%
half-life [1]: 5.5 h
inhibition at 10 µM (CYP2D6): 40%
clearance [2]: 17 mL/min/kg
Cmax [7]: 242 nM
Vd [3]: 7.2 L/kg
IC50 [8]: > 20000 nM
inhibition at 10 µM (CYP1A2): 21%
bioavailability [4]: 28%
IC50 [9]: 5350 nM
IC50 [10]: 48 nM
inhibition at 10 µM (CYP2C9): 31%
SMILES: COc1ccc2c(c1)C[C@H](C(=O)Nc1ccc(-c3cn[nH]c3)cc1OCCN(C)C)NC2

half-life (in vitro): 0.283 h
SMILES: CN(C)CCOc1cc(-c2cn[nH]c2)ccc1NC(=O)[C@@H]1Cc2cc(Cl)ccc2CN1

half-life [1]: 1.7 h
clearance [2]: 130 mL/min/kg
half-life (in vitro): 0.183 h
Vd [3]: 17 L/kg
bioavailability [4]: 0%
SMILES: CCN1Cc2ccc(OC)cc2C[C@@H]1C(=O)Nc1cc(F)c(-c2cn[nH]c2)cc1OCCN(C)C

half-life [1]: 1.5 h
clearance [2]: 4.6 mL/min/kg
Cmax [7]: 32 nM
half-life (in vitro): 0.85 h
Vd [3]: 0.49 L/kg
bioavailability [4]: 0.3%
SMILES: COc1ccc2c(c1)C[C@H](C(=O)Nc1cc(F)c(-c3cn[nH]c3)cc1OCCN(C)C)NC2

half-life (in vitro): 2.02 h
SMILES: CN(C)CCOc1cc(-c2cn[nH]c2)ccc1NC(=O)[C@H]1Cc2cc(Cl)ccc2CN1

half-life (in vitro): 1.87 h
SMILES: COc1ccc2c(c1)C[C@H](C(=O)Nc1c(F)cc(-c3cn[nH]c3)cc1OCCN(C)C)NC2

half-life (in vitro): 1.63 h
SMILES: CN(C)CCOc1cc(-c2cn[nH]c2)ccc1NC(=O)[C@@H]1Cc2ccccc2CN1

half-life (in vitro): 0.233 h
SMILES: CN(C)CCOc1cc(-c2cn[nH]c2)ccc1NC(=O)C1NCCc2ccccc21 (configuration not stated)

half-life (in vitro): 1.2 h
SMILES: COc1ccc2c(c1)C[C@H](C(=O)Nc1ccc(-c3cn[nH]c3)c(F)c1OCCN(C)C)NC2

IC50 [6]: > 20000 nM
inhibition at 10 µM (CYP3A4): 18%
half-life [1]: 2.7 h
inhibition at 10 µM (CYP2D6): 77%
clearance [2]: 106 mL/min/kg
Cmax [7]: 18 nM
half-life (in vitro): 0.75 h
Vd [3]: 24 L/kg
IC50 [8]: > 20000 nM
inhibition at 10 µM (CYP1A2): 31%
bioavailability [4]: 16%
IC50 [9]: 333 nM
IC50 [10]: 33 nM
inhibition at 10 µM (CYP2C9): 62%
SMILES: CN(C)CCOc1cc(-c2cn[nH]c2)c(F)cc1NC(=O)[C@H]1Cc2ccccc2CN1

half-life (in vitro): 1.63 h
SMILES: CN(C)CCOc1cc(-c2cn[nH]c2)ccc1NC(=O)[C@H]1Cc2ccccc2CN1

half-life (in vitro): 0.267 h
SMILES: CN(C)CCOc1cc(-c2cn[nH]c2)c(F)cc1NC(=O)[C@H]1Cc2ccccc2CN1C

half-life (in vitro): 1.68 h
SMILES: COc1ccc2c(c1)C[C@@H](C(=O)Nc1ccc(-c3cn[nH]c3)cc1OCCN(C)C)NC2

More lines, now with the values behind:

SMILES: CN(C)CCOc1cc(-c2cn[nH]c2)c(F)cc1NC(=O)[C@H]1Cc2ccccc2CN1C(=O)CN(C)C
IC50 [5]: 775 nM
half-life (in vitro): 0.233 h

SMILES: COc1ccc2c(c1)C[C@H](C(=O)Nc1ccc(-c3cn[nH]c3)cc1SCCN(C)C)NC2
half-life (in vitro): 0.367 h

SMILES: CCOc1ccc2c(c1)CC(C(=O)Nc1ccc(-c3cn[nH]c3)cc1OCCN(C)C)NC2 (racemic)
IC50 [5]: 156 nM

SMILES: COc1ccc2c(c1)C[C@H](C(=O)Nc1ccc(-c3cn[nH]c3)cc1OC1CCN(C)CC1)NC2
half-life (in vitro): 1.73 h

SMILES: COc1ccc2c(c1)CN[C@@H](C(=O)Nc1ccc(-c3cn[nH]c3)cc1OCCN(C)C)C2
IC50 [5]: 850 nM

SMILES: CCN1Cc2ccccc2C[C@@H]1C(=O)Nc1cc(F)c(-c2cn[nH]c2)cc1OCCN(C)C
IC50 [6]: > 20000 nM
inhibition at 10 µM (CYP3A4): 39%
inhibition at 10 µM (CYP2D6): 52%
half-life (in vitro): 0.0167 h
IC50 [8]: > 20000 nM
inhibition at 10 µM (CYP1A2): -24%
IC50 [9]: 810 nM
IC50 [10]: 16 nM
inhibition at 10 µM (CYP2C9): 70%

SMILES: COc1ccc2c(c1)C[C@H](C(=O)Nc1ccc(-c3cn[nH]c3)cc1SCCC(=O)N(C)C)NC2
half-life (in vitro): 0.05 h

SMILES: COc1ccc2c(c1)C[C@H](C(=O)Nc1ccc(-c3cn[nH]c3)cc1OCCN1CCCC1)NC2
half-life (in vitro): 1.05 h

SMILES: COc1ccc2c(c1)C[C@H](C(=O)Nc1ccc(-c3cn[nH]c3)cc1)NC2
IC50 [5]: 334 nM

SMILES: COc1ccc2c(c1)C[C@H](C(=O)Nc1ccc(-c3cn[nH]c3)cc1OCC1CCN(C)CC1)NC2
Activity (Rattus norvegicus): Active
IC50 [6]: > 20000 nM
inhibition at 10 µM (CYP3A4): 15%
half-life [1]: 3.4 h
inhibition at 10 µM (CYP2D6): 52%
inhibition [11]: 86%
clearance [2]: 41 mL/min/kg
inhibition [12]: 91%
half-life (in vitro): 1.02 h
Vd [3]: 9.5 L/kg
IC50 [8]: > 20000 nM
inhibition [13]: 72%
inhibition at 10 µM (CYP1A2): 3%
inhibition [14]: 66%
bioavailability [4]: 0%
IC50 [9]: 669 nM
IC50 [10]: 10 nM
inhibition [15]: 75%
inhibition at 10 µM (CYP2C9): 45%
inhibition [16]: 74%
inhibition [17]: 77%

SMILES: COc1cccc2c1CNC(C(=O)Nc1ccc(-c3cn[nH]c3)cc1OCCN(C)C)C2 (racemic)
IC50 [5]: 261 nM

SMILES: NC(Cc1ccc(Cl)cc1)C(=O)Nc1ccc(-c2cn[nH]c2)cc1 (configuration not stated)
half-life (in vitro): 1.12 h

SMILES: N[C@H](Cc1cccc(F)c1)C(=O)Nc1ccc(-c2cn[nH]c2)cc1
half-life (in vitro): 1.12 h

SMILES: COCCOc1cc(-c2cn[nH]c2)ccc1NC(=O)[C@H]1Cc2cc(OC)ccc2CN1
half-life (in vitro): 0.717 h

SMILES: NC(C(=O)Nc1ccc(-c2cn[nH]c2)cc1)c1ccc(Cl)cc1 (configuration not stated)
half-life (in vitro): 1.4 h

SMILES: COc1ccc2c(c1)C[C@H](C(=O)Nc1ccc(-c3c[nH]nc3C)cc1SCCN(C)C)NC2
half-life (in vitro): 0.183 h
